{"source": "patent US20240310266A1", "about": "“BIOMARKERS FOR CANCER AND METHODS OF USE THEREOF” (Novartis AG, priority 2021, published 2024)", "origin": "cited, not measured here", "conditions": "rats", "data": [{"compound": "CC(C)(C)c1nc(-c2cccc(NS(=O)(=O)c3c(F)cccc3F)c2F)c(-c2ccnc(N)n2)s1", "note": "[dabrafenib, N-{3-[5-(2-aminopyrimidin-4-yl)-2-tert-butyl-1,3-thiazol-4-yl]-2-fluorophenyl}-2,6-difluorobenzenesulfonamide]", "values": [{"measurement": "proliferative skin lesions", "value": "proliferative skin lesions observed"}]}]}
